Source: patent publication US5223526A, “Pyrazole carboxanilide fungicides and use” (Monsanto Company, priority 1992, dated 1993)

Legend:
succinate dehydrogenase = target: T1, succinate dehydrogenase (Botrytis cinerea, UniProt A0A384J5E4+A0A384J8V8+A0A384JHJ5); experiment: Enzyme inhibition: succinate dehydrogenase activity in Botrytis cinerea mitochondria (DCPIP reduction); assay type: biochemical; settings: concentration required to inhibit the rate of DCPIP reduction by 50%; Botrytis cinerea isolate Nick mitochondria; read-out: I50 (μM conc.)
T1 construct: succinate-DCPIP reductase assay with KCN
T1 sequence (A0A384J5E4 1-300): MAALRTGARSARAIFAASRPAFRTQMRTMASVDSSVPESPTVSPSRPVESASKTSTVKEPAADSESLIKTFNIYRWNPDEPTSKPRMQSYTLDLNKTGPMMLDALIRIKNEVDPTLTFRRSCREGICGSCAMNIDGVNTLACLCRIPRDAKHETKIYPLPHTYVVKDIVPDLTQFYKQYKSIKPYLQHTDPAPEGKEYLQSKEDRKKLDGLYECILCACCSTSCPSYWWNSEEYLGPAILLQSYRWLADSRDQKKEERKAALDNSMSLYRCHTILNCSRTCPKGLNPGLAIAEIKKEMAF
T1 sequence (A0A384J8V8 1-189): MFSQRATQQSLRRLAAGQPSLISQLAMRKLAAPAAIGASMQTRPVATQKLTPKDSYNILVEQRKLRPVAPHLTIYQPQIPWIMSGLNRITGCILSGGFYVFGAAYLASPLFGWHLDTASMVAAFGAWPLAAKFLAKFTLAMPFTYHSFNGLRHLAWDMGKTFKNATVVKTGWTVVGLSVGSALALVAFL
T1 sequence (A0A384JHJ5 1-192): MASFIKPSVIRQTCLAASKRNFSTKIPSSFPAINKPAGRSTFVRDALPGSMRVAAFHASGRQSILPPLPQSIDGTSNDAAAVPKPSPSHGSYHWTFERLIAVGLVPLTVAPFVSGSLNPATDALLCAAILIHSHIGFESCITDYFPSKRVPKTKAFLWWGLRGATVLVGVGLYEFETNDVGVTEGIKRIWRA
T1 sequence (A0A384K456 1-647 partner): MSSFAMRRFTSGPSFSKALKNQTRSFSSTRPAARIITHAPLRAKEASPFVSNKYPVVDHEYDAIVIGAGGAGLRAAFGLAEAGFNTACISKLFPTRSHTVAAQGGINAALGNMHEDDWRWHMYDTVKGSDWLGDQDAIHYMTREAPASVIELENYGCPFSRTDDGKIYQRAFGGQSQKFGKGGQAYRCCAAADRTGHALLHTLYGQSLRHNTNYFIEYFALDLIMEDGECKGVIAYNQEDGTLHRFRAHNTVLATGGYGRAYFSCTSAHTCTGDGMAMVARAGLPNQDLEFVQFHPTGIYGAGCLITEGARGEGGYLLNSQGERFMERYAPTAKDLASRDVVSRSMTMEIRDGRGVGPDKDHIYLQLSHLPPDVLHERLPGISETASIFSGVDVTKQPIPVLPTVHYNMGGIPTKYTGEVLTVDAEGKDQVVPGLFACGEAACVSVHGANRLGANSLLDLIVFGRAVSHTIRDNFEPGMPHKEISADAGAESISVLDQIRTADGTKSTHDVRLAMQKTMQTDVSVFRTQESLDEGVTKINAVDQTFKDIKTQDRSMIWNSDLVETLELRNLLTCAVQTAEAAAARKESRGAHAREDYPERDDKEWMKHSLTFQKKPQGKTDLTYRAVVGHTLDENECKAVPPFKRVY
Outline: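 Crude mitochondria from Botrytis cinerea isolate Nick mycelia, prepared by bead-beating and differential centrifugation, started reactions. SDH activity followed as DCPIP reduction at 600 nm in 50 mM K-phosphate pH 7.2 with 1 mM KCN, 45 μM DCPIP, 17 mM succinate, 1% acetone. I50 from semilog inhibition plots, corrected for succinate-free rates.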

Rhizoctonia solani = experiment: Rice sheath blight; assay type: in vivo; settings: inoculated two days later, rated after 7 days, average of five plants
Outline: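 Rice plants 11–15 days old had foliage and soil sprayed with 0.5, 0.1 or 0.02 mg/mL Compound A in water/acetone/Tween 20, then kept in flooded trays. Two days later, rice-grain Rhizoctonia solani inoculum went to plant bases; disease control scored versus untreated after 7 days at 25 °C, high humidity, averaging five plants.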

Botrytis cinerea [1] = experiment: Vine grey mold (grape berries); assay type: in vivo
Outline: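 Preventive berry test: compound at 50 or 200 ppm (acetone/water, 0.05% Tween 20) applied one day before inoculation with 10^6 spores/mL Botrytis conidia. After 7-10 days at 20 °C under 12 h light, infected surface area rated; disease control expressed as percent reduction from control mean; repeated-test values averaged.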

[2] = test system: Botrytis cinerea Mitochondria; settings: 1 μM concentration; cited from earlier work
Botrytis cinerea [3] = experiment: Eggplant grey mold; assay type: in vivo; settings: eggplant sprayed with 500 ppm, inoculated 24 h later, rated after 3-4 days; also: key: 0: No disease control; 1: Low level of control; 2: Moderate control; 3: High level of control
Outline: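 Protective test: compound formulations (2:3 acetone:water, 0.5% Tween 20; 500, 100 or 20 ppm) sprayed on 14-18-day-old plants, with spore inoculum (4×10^6 spore/mL) applied a day later. Disease control rated on Botrytis lesions after 3-4 days at 23 °C and 100% humidity.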

SMILES: CC1=C(C(=O)Nc2ccccc2)SCCO1 [Carboxin, carboxin, reference compound]
- IC50 (succinate dehydrogenase): 0.72 ± 0.3 µM
- Disease Control Rating at 0.02 mg/mL (Rhizoctonia solani; foliage and soil sprayed with 0.02 mg/mL): 0
- Disease Control Rating at 0.1 mg/mL (Rhizoctonia solani; foliage and soil sprayed with 0.1 mg/mL): 1
- Disease Control Rating at 0.5 mg/mL (Rhizoctonia solani; foliage and soil sprayed with 0.5 mg/mL): 3
- pest or weed control at 50 ppm (Botrytis cinerea [1]; read-out: % DISEASE CONTROL 50 ppm): 0%
- pest or weed control at 200 ppm (Botrytis cinerea [1]; read-out: % DISEASE CONTROL 200 ppm): 0%
- inhibition (respiratory inhibition) [2]: 68%
- Disease Control Rating at 500 ppm (Botrytis cinerea [3]): 0
